# Results taken from patent publication US4731109A, “Herbicidal 2-haloacetanilides” (Monsanto Company, priority 1982, dated 1988).
# Key:
# shattercane = experiment: Greenhouse pre-emergence GR15/GR85 selectivity test; format: in vivo; settings: Table XIV
# Source text: (§1) A good grade of top soil is placed in aluminum pans and compacted to a depth of three-eighths to one-half inch from the top of the pan. On the top of the soil is placed a number of seeds or vegetative propagules of various plant species. The soil required to level fill the pans after seeding or adding vegetative propagules is weighed into a pan. The soil and a known amount of the active ingredient applied in a solvent or as a wettable powder suspension are thoroughly mixed, and used to cover the prepared pans. […] As an alternative procedure, the overhead irrigation may be omitted. Observations are made about 2-3 weeks after seeding and treatment.
# (§2) A further guide to the effectiveness of a chemical as a selective herbicide is the "selectivity factor" ("SF") for a herbicide in given crops and weeds. The selectivity factor is a measure of the relative degree of crop safety and weed injury and is expressed in terms of the GR15 /GR85 ratio, i.e., the GR15 rate for the crop divided by the GR85 rate for the weed, both rates in kg/ha (lb/A). In the tables below, selectivity factors are shown in parenthesis following the GR85 rate for each weed; the symbol "NS" indicates "non-selective". Marginal or undetermined selectivity is indicated by a dash (--).
# (§3) Unless otherwise noted; greenhouse tests in Table VI and in other tables below involved herbicide treatments by soil incorporation and an initial overhead irrigation followed by subirrigation as described above.
# itchgrass = experiment: as above; format: in vivo; settings: Table XIV
# Source text: as §1, §2, §3
# Texas panicum = experiment: as above; format: in vivo; settings: Table XIV
# Source text: as §1, §2, §3
# alexandergrass = experiment: as above; format: in vivo; settings: Table XIV
# Source text: as §1, §2, §3
# red rice = experiment: as above; format: in vivo; settings: Table XIV
# Source text: as §1, §2, §3
# seedling johnsongrass = experiment: as above; format: in vivo; settings: Table XIV
# Source text: as §1, §2, §3
# fall panicum = experiment: as above; format: in vivo; settings: Table XIV
# Source text: as §1, §2, §3
# corn = experiment: as above; format: in vivo
# Source text: (§4) A good grade of top soil is placed in aluminum pans and compacted to a depth of three-eighths to one-half inch from the top of the pan. On the top of the soil is placed a number of seeds or vegetative propagules of various plant species. The soil required to level fill the pans after seeding or adding vegetative propagules is weighed into a pan. The soil and a known amount of the active ingredient applied in a solvent or as a wettable powder suspension are thoroughly mixed, and used to cover the prepared pans. After treatment, the pans are given an initial overhead irrigation of eater, equivalent to one-fourth inch (0.64 cm) rainfall, then watered by subirrigation as need to give adequate moisture for germination and growth. As an alternative procedure, the overhead irrigation may be omitted. Observations are made about 2-3 weeks after seeding and treatment.
# (§5) In the discussion and tables of data below, reference is made to herbicide application rates symbolized as "GR15 " and "GR85 "; these rates are given in kilograms per hectare (kg/ha) which are convertible into pounds per acre (lbs/A) by dividing the kg/ha rate by 1.12.
# as §2
# In Table IV pre-emergence herbicidal activity data are presented comparing the relative efficacy of the invention compounds and said prior art compounds as selective herbicides against the resistant and troublesome perennial weeds quackgrass and yellow nutsedge in soybeans and corn, respectively. These weeds are commonly associated with such major crops as corn and soybeans. The test data in Table IV were obtained under identical procedural conditions and represent two replicate runs (except for the compound of Example 9 which was present in one comparative test). The test procedure was the same as described for Tables II and III but modified by the application of an initial overhead irrigation equivalent to 1/4" (0.64 cm) rainfall; subsequent watering was accomplished by subirrigation. "NS" means non-selective within the test limits.
# (§6) Additionally, pre-emergence herbicidal data from other tests have established that compounds according to this invention also selectively suppress quackgrass, yellow nutsedge and/or other weeds in one or more of the crops cotton, peanuts, bush beans and/or rape. For example, in Table VI are presented data showing the herbicidal selectivity of the compounds of Examples 1 and 2 against quackgrass in rape and snap beans. Unless otherwise noted; greenhouse tests in Table VI and in other tables below involved herbicide treatments by soil incorporation and an initial overhead irrigation followed by subirrigation as described above.
# wild proso millet = experiment: as above; format: in vivo, wild proso millet (panicum milicaeum); settings: Table XIV
# Source text: as §1, §2, §3
# Quackgrass = experiment: Herbicidal effect in a variety of soil types; format: in vivo; settings: for selectivity factor (GR15/GR85): in soybeans
# Source text: The herbicide treatments were by soil incorporation with seeds planted 0.375 in (0.95 cm) deep, with 0.25 in (0.64 cm overhead irrigation. Observations were made about three weeks after treatment. Selectivity factors are shown in parenthesis.
# rape = experiment: Greenhouse pre-emergence GR15/GR85 selectivity test; format: in vivo; settings: Table VI
# Source text: as §4, §5, §2, §6
# (§7) In another greenhouse test, the compounds of Examples 3-5, 9 and 10 were tested for their herbicidal efficacy against a variety of resistant annual and perennial weeds in rape.
# purple nutsedge = experiment: as above; format: in vivo
# Source text: as §4, §5, §2, §6
# In other greenhouse tests, compounds according to this invention have shown selective control of a variety of annual and perennial weeds in various crops. As further illustrative, the compound of Example 1 selectively controlled purple nutsedge in both corn nd soybeans, the respective crop/weed GR15 /GR85 ratios (expressed in kg/ha) being 0.67/0.25 (S.F.=2.7) in corn and 1.1/0.25 (S.F.=4.5) in soybeans. The compound of Example 8 has shown selective control of yellow nutsedge and quackgrass in corn and soybeans. The respective crop/yellownutsedge GR15 /GR85 ratios being >2.2/0.95 (S.F.=2.5) in corn; 2.2/0.5 (SF=4.5) in soybeans and the respective GR15 /GR85 ratios for both corn and soybeans in quackgrass being >2.2/0.5 (S.F.=4.5). In a test against yellow nutsedge in cotton, the GR15 /GR85 ratio (average of two replicates) was 2.0/0.95 (S.F.=2).
# as §7
# [1] = Drummer silty clay, Table XVII A
# [2] = Drummer silty clay, Table XVII B
# [3] = Drummer silty clay, Table XVII C
# [4] = Wabash silty clay, Table XVII B
# [5] = Wabash silty clay, Table XVII C
compound,measurement,setting,value
"CCOCN(C(=O)CCl)c1c(C)cccc1C(F)(F)F [Example 1, N-(ethoxymethyl)-2'-trifluoromethyl-6'-methyl-2-chloroacetanilide]",GR85 Rate,shattercane,0.28 Kg/Ha
same,selectivity factor (GR15/GR85),shattercane; in soybeans,> 4.0
same,GR85 Rate,itchgrass,1.1 Kg/Ha
same,selectivity factor (GR15/GR85),itchgrass; in soybeans,> 1.0
same,GR85 Rate,Texas panicum,1.1 Kg/Ha
same,selectivity factor (GR15/GR85),Texas panicum; in soybeans,> 1.0
same,GR85 Rate,alexandergrass,0.56 Kg/Ha
same,selectivity factor (GR15/GR85),alexandergrass; in soybeans,> 2.0
same,GR85 Rate,red rice,0.2 Kg/Ha
same,selectivity factor (GR15/GR85),red rice; in soybeans,> 5.5
same,GR85 Rate,seedling johnsongrass,0.14 Kg/Ha
same,selectivity factor (GR15/GR85),seedling johnsongrass; in soybeans,> 8.0
same,GR85 Rate,fall panicum,< 0.07 Kg/Ha
same,selectivity factor (GR15/GR85),fall panicum; in soybeans,> 16
same,GR15,"corn; Table IV, Replicate #1",0.76 Kg/Ha
same,GR15,"corn; Table IV, Replicate #2",0.76 Kg/Ha
same,GR15,corn; Table V,2.2 Kg/Ha
same,GR15,corn; Table XII,0.69 Kg/Ha
same,GR15,corn; Table XIII,0.69 Kg/Ha
same,GR15,corn; corn/purple nutsedge,0.67 kg/ha
same,GR85 Rate,wild proso millet,1.1 Kg/Ha
same,selectivity factor (GR15/GR85),wild proso millet; in soybeans,> 1.0
same,GR85,Quackgrass; [1],0.11 Kg/Ha
same,GR85,Quackgrass; [2],0.17 Kg/Ha
same,GR85,Quackgrass; [3],0.13 Kg/Ha
same,GR85,"Quackgrass; Florida muck, Table XVII A",0.52 Kg/Ha
same,GR85,"Quackgrass; Florida muck, Table XVII B",0.78 Kg/Ha
same,GR85,"Quackgrass; Florida muck, Table XVII C",0.74 Kg/Ha
same,GR85,"Quackgrass; Florida sand, Table XVII A",0.2 Kg/Ha
same,GR85,"Quackgrass; Florida sand, Table XVII B",0.48 Kg/Ha
same,GR85,"Quackgrass; Ray silt loam, Table XVII A",0.22 Kg/Ha
same,GR85,"Quackgrass; Ray silt loam, Table XVII B",0.13 Kg/Ha
same,GR85,"Quackgrass; Ray silt loam, Table XVII C",0.10 Kg/Ha
same,GR85,"Quackgrass; Sarpy silty clay, Table XVII A",0.28 Kg/Ha
same,GR85,"Quackgrass; Sarpy silty clay, Table XVII B",0.10 Kg/Ha
same,GR85,"Quackgrass; Sarpy silty clay, Table XVII C",0.13 Kg/Ha
same,GR85,"Quackgrass; Wabash silty clay, Table XVII A",0.28 Kg/Ha
same,GR85,Quackgrass; [4],0.13 Kg/Ha
same,GR85,Quackgrass; [5],0.07 Kg/Ha
same,selectivity factor (GR15/GR85),Quackgrass; [1],20
same,selectivity factor (GR15/GR85),Quackgrass; [2],13
same,selectivity factor (GR15/GR85),Quackgrass; [3],14.5
same,selectivity factor (GR15/GR85),"Quackgrass; Florida muck, Table XVII A",> 4.5
same,selectivity factor (GR15/GR85),"Quackgrass; Florida muck, Table XVII B",> 3
same,selectivity factor (GR15/GR85),"Quackgrass; Florida muck, Table XVII C",> 3
same,selectivity factor (GR15/GR85),"Quackgrass; Florida sand, Table XVII A",10
same,selectivity factor (GR15/GR85),"Quackgrass; Florida sand, Table XVII B",4.5
same,selectivity factor (GR15/GR85),"Quackgrass; Ray silt loam, Table XVII A",5
same,selectivity factor (GR15/GR85),"Quackgrass; Ray silt loam, Table XVII B",16.5
same,selectivity factor (GR15/GR85),"Quackgrass; Ray silt loam, Table XVII C",19.5
same,selectivity factor (GR15/GR85),"Quackgrass; Sarpy silty clay, Table XVII A",> 8
same,selectivity factor (GR15/GR85),"Quackgrass; Sarpy silty clay, Table XVII B",22
same,selectivity factor (GR15/GR85),"Quackgrass; Sarpy silty clay, Table XVII C",> 16.5
same,selectivity factor (GR15/GR85),Quackgrass; [4],17
same,selectivity factor (GR15/GR85),Quackgrass; [5],31.5
same,GR15 Rate,rape,0.85 Kg/Ha
same,GR85,purple nutsedge; in corn,0.25 kg/ha
same,S.F. (GR15/GR85),purple nutsedge; in corn,2.7
same,GR85,purple nutsedge; in soybeans,0.25 kg/ha
same,S.F. (GR15/GR85),purple nutsedge; in soybeans,4.5
